Data on 16 molecules can be found in patent US8729061B2, “Pyrrolidine derivatives” (Hoffmann-La Roche Inc., priority 2011, dated 2014).

Common to all, as to assay type: biochemical
One test deals with human Cathepsin S (Homo sapiens (Human), UniProt P25774). The test is described as follows: Cathepsin enzyme inhibition assay (fluorogenic peptide substrate), Cat S. The note with it: enzyme 1 nM, substrate Z-Val-Val-Arg-AMC 20 μM, pH 6.5. The method in brief: (§1)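 Fluorogenic cleavage assay run separately on human and mouse enzymes, each at 1 nM, in 100 mM potassium phosphate pH 6.5 with 5 mM EDTA, 5 mM DTT and 0.001% Triton X-100. Reaction started with 20 μM Z-Val-Val-Arg-AMC, or Z-Leu-Arg-AMC for Cat K; AMC read at ex 360/em 465 nm. IC50 calculated by standard methods.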
Chain of human Cathepsin S (P25774 115-331): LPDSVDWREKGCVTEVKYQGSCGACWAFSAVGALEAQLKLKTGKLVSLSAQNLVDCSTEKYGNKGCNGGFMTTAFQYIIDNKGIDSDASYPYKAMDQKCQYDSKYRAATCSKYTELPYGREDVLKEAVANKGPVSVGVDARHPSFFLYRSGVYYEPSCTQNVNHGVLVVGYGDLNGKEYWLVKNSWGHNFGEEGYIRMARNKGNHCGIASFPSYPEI

A further test has as its target human Cat L (Homo sapiens (Human), UniProt P07711). The test is described as follows: Cathepsin enzyme inhibition assay (fluorogenic peptide substrate), Cat L. The settings on record: enzyme 1 nM, substrate Z-Val-Val-Arg-AMC 20 μM, pH 6.5. A digest of the protocol: as §1
Another test concerns the target human Cat K (Homo sapiens (Human), UniProt P43235). The test can be described thus: Cathepsin enzyme inhibition assay (fluorogenic peptide substrate), Cat K. The note with it: enzyme 1 nM, substrate Z-Leu-Arg-AMC 20 μM, pH 6.5. A digest of the protocol:
as §1

In a further test the target is human Cat B (Homo sapiens (Human), UniProt P07858). The test can be described thus: Cathepsin enzyme inhibition assay (fluorogenic peptide substrate), Cat B. The note with it: enzyme 1 nM, substrate Z-Val-Val-Arg-AMC 20 μM, pH 6.5. The method in brief:
as §1

Molecules are shown by their SMILES.

Chain of human Cat K (P43235 115-329): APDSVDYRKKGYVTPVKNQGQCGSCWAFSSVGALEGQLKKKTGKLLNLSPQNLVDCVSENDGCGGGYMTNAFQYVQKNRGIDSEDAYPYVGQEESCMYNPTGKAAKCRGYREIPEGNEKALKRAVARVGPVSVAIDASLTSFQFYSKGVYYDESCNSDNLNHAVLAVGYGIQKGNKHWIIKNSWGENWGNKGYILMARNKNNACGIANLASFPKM
Chain of human Cat L (P07711 114-333): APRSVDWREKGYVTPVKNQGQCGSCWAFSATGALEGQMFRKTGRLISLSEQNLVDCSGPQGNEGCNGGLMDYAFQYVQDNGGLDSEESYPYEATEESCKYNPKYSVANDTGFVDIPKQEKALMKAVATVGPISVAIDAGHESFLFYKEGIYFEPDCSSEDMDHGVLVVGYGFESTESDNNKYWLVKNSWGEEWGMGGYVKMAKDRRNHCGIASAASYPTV

`CCC[C@H](NC(=O)[C@@H]1C[C@@H](S(=O)(=O)c2ccccc2Cl)CN1C(=O)C1(c2ccc(I)cc2)CC1)C(=O)C(=O)NC1CC1` [Example 18, (2S,4R)-4-(2-chlorophenylsulfonyl)-N—((S)-1-(cyclopropylamino)-1,2-dioxohexan-3-yl)-1-(1-(4-iodophenyl)cyclopropanecarbonyl)pyrrolidine-2-carboxamide]: the IC50 (as a rule, the midpoint of a concentration-inhibition curve) on human Cathepsin S was 0.6 nM; at human Cat L, 8.4 nM; against human Cat K, 21 nM; at human Cat B, 70.1 nM.

Consider `CCCCNC(=O)C(=O)[C@H](CCC)NC(=O)[C@@H]1C[C@@H](S(=O)(=O)c2ccccc2Cl)CN1C(=O)C1(c2ccc(Cl)cc2)CC1` [Example 32, (2S,4R)—N—((S)-1-(butylamino)-1,2-dioxohexan-3-yl)-1-(1-(4-chlorophenyl)cyclopropanecarbonyl)-4-(2-chlorophenylsulfonyl)pyrrolidine-2-carboxamide], for which the IC50 at human Cathepsin S worked out at 0.734 nM; at human Cat L, 7.7 nM; on human Cat K it was 24 nM; against human Cat B it was 29.4 nM.

Turning to `CC[C@H](NC(=O)[C@@H]1C[C@@H](S(=O)(=O)c2ccccc2Cl)CN1C(=O)C1(c2ccc(Cl)cc2)CC1)C(=O)C(=O)NCc1cccc2ccccc12` [Example 52, (2S,4R)-1-(1-(4-chlorophenyl)cyclopropanecarbonyl)-4-(2-chlorophenylsulfonyl)-N—((S)-1-(naphthalen-1-ylmethylamino)-1,2-dioxopentan-3-yl)pyrrolidine-2-carboxamide], the IC50 at human Cathepsin S amounted to 1.96 nM; at human Cat L, 9.4 nM; at human Cat K it was 317 nM; at human Cat B, 386 nM.

On to `CCC[C@H](NC(=O)[C@@H]1C[C@@H](S(=O)(=O)c2ccccc2Cl)CN1C(=O)C1(c2ccc(Cl)cc2)CC1)C(=O)C(=O)NCC` [Example 44, (2S,4R)-1-(1-(4-chlorophenyl)cyclopropanecarbonyl)-4-(2-chlorophenylsulfonyl)-N—((S)-1-(ethylamino)-1,2-dioxohexan-3-yl)pyrrolidine-2-carboxamide], for which the IC50 is 0.779 nM on human Cathepsin S, 13.6 nM against human Cat L, 91.8 nM on human Cat K and 108 nM against human Cat B.

On to `CCC[C@H](NC(=O)[C@@H]1C[C@@H](S(=O)(=O)c2ccccc2Cl)CN1C(=O)C1(c2ccc(Cl)cc2)CC1)C(=O)C(=O)NC1CC1` [Example 9, (2S,4R)-1-(1-(4-chlorophenyl)cyclopropanecarbonyl)-4-(2-chlorophenylsulfonyl)-N—((S)-1-(cyclopropylamino)-1,2-dioxohexan-3-yl)pyrrolidine-2-carboxamide], for which the IC50 is 0.367 nM at human Cathepsin S, 4.7 nM against human Cat L, 19.6 nM at human Cat K and 43.3 nM at human Cat B.

On to `CC[C@H](NC(=O)[C@@H]1C[C@@H](S(=O)(=O)c2ccc(F)cc2C(F)(F)F)CN1c1cc(C)nn1C1CCC1)C(=O)C(=O)NC1CC1` [Example 4, (2S,4R)-1-(1-cyclobutyl-3-methyl-1H-pyrazol-5-yl)-N—((S)-1-(cyclopropylamino)-1,2-dioxopentan-3-yl)-4-(4-fluoro-2-(trifluoromethyl)phenylsulfonyl)pyrrolidine-2-carboxamide], for which the IC50 against human Cathepsin S came out at 2.98 nM; against human Cat L, 551 nM; against human Cat K, 5890 nM; against human Cat B, 2920 nM.

For the molecule `O=C(NC1CC1)C(=O)C1(NC(=O)[C@@H]2C[C@@H](S(=O)(=O)c3ccccc3Cl)CN2C(=O)C2(c3ccc(Cl)cc3)CC2)CC1` [Example 27, (2S,4R)-1-(1-(4-chlorophenyl)cyclopropanecarbonyl)-4-(2-chlorophenylsulfonyl)-N-(1-(2-(cyclopropylamino)-2-oxoacetyl)cyclopropyl)pyrrolidine-2-carboxamide], the IC50 is 17.9 nM against human Cathepsin S, 6800 nM against human Cat L, 25000 nM on human Cat K and 25000 nM against human Cat B.

`CCC[C@H](NC(=O)[C@@H]1C[C@@H](S(=O)(=O)c2ccc(F)cc2Cl)CN1C(=O)C1(c2ccc(Cl)cc2)CC1)C(=O)C(=O)NC1CC1` [Example 48, (2S,4R)-4-(2-chloro-4-fluorophenylsulfonyl)-1-(1-(4-chlorophenyl)cyclopropanecarbonyl)-N—((S)-1-(cyclopropylamino)-1,2-dioxohexan-3-yl)pyrrolidine-2-carboxamide]: the IC50 on human Cathepsin S turned out to be 0.527 nM; against human Cat L it was 9.4 nM; against human Cat K, 35 nM; against human Cat B, 83.2 nM.

On to `C[C@H](NC(=O)[C@@H]1C[C@@H](S(=O)(=O)c2ccccc2Cl)CN1C(=O)C1(c2ccc(Cl)cc2)CC1)C(=O)C(=O)NC1CC1` [Example 34, (2S,4R)-1-(1-(4-chlorophenyl)cyclopropanecarbonyl)-4-(2-chlorophenylsulfonyl)-N—((S)-4-(cyclopropylamino)-3,4-dioxobutan-2-yl)pyrrolidine-2-carboxamide], for which the IC50 against human Cathepsin S worked out at 0.787 nM; against human Cat L, 28 nM; on human Cat K, 444 nM; against human Cat B it was 399 nM.

As for `CC[C@H](NC(=O)[C@@H]1C[C@@H](S(=O)(=O)c2ccc(OCC(F)(F)F)cc2Cl)CN1C(=O)C1(c2ncc(Cl)cc2F)CC1)C(=O)C(=O)NC1CC1` [Example 10, (2S,4R)-1-(1-(5-chloro-3-fluoropyridin-2-yl)cyclopropanecarbonyl)-4-(2-chloro-4-(2,2,2-trifluoroethoxy)phenylsulfonyl)-N—((S)-1-(cyclopropylamino)-1,2-dioxopentan-3-yl)pyrrolidine-2-carboxamide], the IC50 against human Cathepsin S worked out at 2.88 nM; at human Cat L, 55.4 nM; at human Cat K, 118 nM; at human Cat B, 829 nM.

Turning to `CC[C@H](NC(=O)[C@@H]1C[C@@H](S(=O)(=O)c2ccccc2Cl)CN1C(=O)C1(c2ccc(Cl)cc2)CC1)C(=O)C(=O)NCCc1ccc2ccccc2c1` [Example 51, (2S,4R)-1-(1-(4-chlorophenyl)cyclopropanecarbonyl)-4-(2-chlorophenylsulfonyl)-N—((S)-1-(2-(naphthalen-2-yl)ethylamino)-1,2-dioxopentan-3-yl)pyrrolidine-2-carboxamide], the IC50 against human Cathepsin S came to 3.08 nM; against human Cat L, 13 nM; against human Cat K it was 159 nM; against human Cat B, 172 nM.

On to `CCCC(C)NC(=O)C(=O)[C@H](CC)NC(=O)[C@@H]1C[C@@H](S(=O)(=O)c2ccccc2Cl)CN1C(=O)C1(c2ccc(Cl)cc2)CC1` (stereo partly drawn) [Example 36, (2S,4R)-1-(1-(4-chlorophenyl)cyclopropanecarbonyl)-4-(2-chlorophenylsulfonyl)-N-((3S)-1,2-dioxo-1-(pentan-2-ylamino)pentan-3-yl)pyrrolidine-2-carboxamide], for which the IC50 worked out at 0.776 nM on human Cathepsin S, 16.5 nM on human Cat L, 155 nM on human Cat K and 350 nM against human Cat B.

Regarding `CC[C@H](NC(=O)[C@@H]1C[C@@H](S(=O)(=O)c2ccc(Br)cc2C(F)(F)F)CN1c1cc(C)nn1C1CCC1)C(=O)C(=O)NC1CC1` [Example 6, (2S,4R)-4-(4-bromo-2-(trifluoromethyl)phenylsulfonyl)-1-(1-cyclobutyl-3-methyl-1H-pyrazol-5-yl)-N—((S)-1-(cyclopropylamino)-1,2-dioxopentan-3-yl)pyrrolidine-2-carboxamide], the IC50 was 0.976 nM against human Cathepsin S, 202 nM against human Cat L, 168 nM on human Cat K and 1300 nM against human Cat B.

On to `CC[C@H](NC(=O)[C@@H]1C[C@@H](S(=O)(=O)c2ccc(N3CCOCC3)cc2Cl)CN1C(=O)C1(c2ccc(Cl)cc2)CC1)C(=O)C(=O)NC1CC1` [Example 56, (2S,4R)-4-(2-chloro-4-morpholinophenylsulfonyl)-1-(1-(4-chlorophenyl)cyclopropanecarbonyl)-N—((S)-1-(cyclopropylamino)-1,2-dioxopentan-3-yl)pyrrolidine-2-carboxamide], for which the IC50 at human Cathepsin S came to 2.57 nM; on human Cat L, 20.6 nM; at human Cat K, 65.4 nM; on human Cat B, 101 nM.

For the molecule `CCC[C@H](NC(=O)[C@@H]1C[C@@H](S(=O)(=O)c2ccc(N3CCOCC3)cc2Cl)CN1C(=O)C1(c2ccc(Cl)cc2)CC1)C(=O)C(=O)NC1CC1` [Example 57, (2S,4R)-4-(2-chloro-4-morpholinophenylsulfonyl)-1-(1-(4-chlorophenyl)cyclopropanecarbonyl)-N—((S)-1-(cyclopropylamino)-1,2-dioxohexan-3-yl)pyrrolidine-2-carboxamide], the IC50 against human Cathepsin S amounted to 3.33 nM; against human Cat L, 24.9 nM; on human Cat K it was 75 nM; on human Cat B it was 93.2 nM.

On to `CCCC(C)NC(=O)C(=O)[C@H](CCC)NC(=O)[C@@H]1C[C@@H](S(=O)(=O)c2ccccc2Cl)CN1C(=O)C1(c2ccc(Cl)cc2)CC1` (stereo partly drawn) [Example 37, (2S,4R)-1-(1-(4-chlorophenyl)cyclopropanecarbonyl)-4-(2-chlorophenylsulfonyl)-N-((3S)-1,2-dioxo-1-(pentan-2-ylamino)hexan-3-yl)pyrrolidine-2-carboxamide], for which the 50% inhibitory concentration (IC50) worked out at 1.02 nM against human Cathepsin S, 15.1 nM against human Cat L, 107 nM at human Cat K and 246 nM on human Cat B.
